We go through two compounds from article PMC2888050, “Cromoglycate drugs suppress eicosanoid generation in U937 cells by promoting the release of Anx-A1” (Biochemical Pharmacology, 2009).

The structures appear in SMILES notation.

For the experiment, the target named is T1, PP2A (Bos taurus, UniProt P67774).
T1 construct: gene PPP2CA
Put plainly: colorimetric pNPP phosphatase assay with purified enzyme, […] min pre-incubation. Format: biochemical.

T1 sequence (P67774 whole entry): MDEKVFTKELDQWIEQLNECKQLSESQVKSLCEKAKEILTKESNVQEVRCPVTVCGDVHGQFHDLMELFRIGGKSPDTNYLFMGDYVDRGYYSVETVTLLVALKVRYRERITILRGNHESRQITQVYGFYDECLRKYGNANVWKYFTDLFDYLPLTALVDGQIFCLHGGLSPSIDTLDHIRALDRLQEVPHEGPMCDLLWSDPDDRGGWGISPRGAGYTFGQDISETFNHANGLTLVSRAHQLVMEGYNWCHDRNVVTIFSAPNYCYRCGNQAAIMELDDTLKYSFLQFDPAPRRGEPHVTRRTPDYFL

The compound `O=C(O)c1cc(=O)c2c(OCC(O)COc3cccc4oc(C(=O)O)cc(=O)c34)cccc2o1` [cromoglycate] had an IC50 of approximately 1.7 nM.

`CCCc1c2oc(C(=O)O)cc(=O)c2cc2c(=O)cc(C(=O)O)n(CC)c12` [nedocromil] came in with an IC50 of approximately 0.65 nM.
